These are literature values, as cited in patent US20260174730A1, “A COMPOSITION FOR TREATING PARKINSON'S DISEASE” (COUNCIL OF SCIENTIFIC & INDUSTRIAL RESEARCH, priority 2023, published 2026).

This data set concerns oxygen-glucose deprivation in vitro.

Consider `C/C(=C\COc1ccc2ccc(=O)oc2c1)CC[C@@H]1C(C)(C)[C@H]2CC[C@]1(C)O2` [farnesiferol C], for which the neuroprotective activity entry is given as “moderate neuroprotective activity”.
